SMILES strings stand for the structures.

Data set [1] is described as follows: Plasma clearance in human liver microsomes. In kind it is ADME, Microsome.
The target in data set [2] is Cytochrome P450 3A4 (Homo sapiens, UniProt P08684). The experiment in a line: In vitro inhibition of Cytochrome P450 3A4. It counts as ADME.
Data set [3] relates to Human immunodeficiency virus 1. Description: Viral spread inhibitory concentration against HIV-1 strain K-60C in MT-4 human T-lymphoid cells. In kind it is functional. The following applies: Human immunodeficiency virus 1, T-lymphoid; read-out: CIC95.
In data set [4] the test system is Human immunodeficiency virus 1. The experiment in a line: Viral spread inhibitory concentration against HIV-1 strain NL4-3 in MT-4 human T-lymphoid cells. It counts as functional. The settings on record: Human immunodeficiency virus 1, T-lymphoid; read-out: CIC95.
Data set [5] deals with Human immunodeficiency virus 1. Description: Viral spread inhibitory concentration against HIV-1 strain Q-60C in MT-4 human T-lymphoid cells. The following applies: Human immunodeficiency virus 1, T-lymphoid; read-out: CIC95. It counts as functional.
For data set [6], the system named is MT4. The experiment in a line: Viral spread inhibitory concentration against HIV-1 strain V-18C in MT-4 human T-lymphoid cells. It counts as functional. The settings on record: read-out: CIC95.
Data set [7] has as its target T1, Human immunodeficiency virus type 1 protease (Human immunodeficiency virus 1, UniProt Q72874). Description: In vitro inhibition of HIV-1 protease (NL4-3 strain).
Data set [8] can be described thus: Cmax value determined in dog at a dose of 10 mg/kg by oral administration. In kind it is ADME, organism-based, Canis lupus familiaris. Also on record: dose 10 mg/kg, route oral. The settings on record: in vivo.
The nature of data set [9]: Area under curve determined in dog at a dose of 10 mg/kg by oral administration. It counts as ADME, organism-based, Canis lupus familiaris. Also on record: dose 10 mg/kg, route oral. The settings on record: in vivo.
Data set [10] can be described thus: Area under curve determined in dog at a dose of 10 mg/kg by oral administration along with […] (10 mg/kg). The settings on record: in vivo.
The target of data set [11] is Cytochrome P450 2D6 (Homo sapiens, UniProt P10635). The experiment in a line: In vitro inhibition of Cytochrome P450 2D6. It counts as ADME.
Chain of Cytochrome P450 2D6 (P10635 whole entry): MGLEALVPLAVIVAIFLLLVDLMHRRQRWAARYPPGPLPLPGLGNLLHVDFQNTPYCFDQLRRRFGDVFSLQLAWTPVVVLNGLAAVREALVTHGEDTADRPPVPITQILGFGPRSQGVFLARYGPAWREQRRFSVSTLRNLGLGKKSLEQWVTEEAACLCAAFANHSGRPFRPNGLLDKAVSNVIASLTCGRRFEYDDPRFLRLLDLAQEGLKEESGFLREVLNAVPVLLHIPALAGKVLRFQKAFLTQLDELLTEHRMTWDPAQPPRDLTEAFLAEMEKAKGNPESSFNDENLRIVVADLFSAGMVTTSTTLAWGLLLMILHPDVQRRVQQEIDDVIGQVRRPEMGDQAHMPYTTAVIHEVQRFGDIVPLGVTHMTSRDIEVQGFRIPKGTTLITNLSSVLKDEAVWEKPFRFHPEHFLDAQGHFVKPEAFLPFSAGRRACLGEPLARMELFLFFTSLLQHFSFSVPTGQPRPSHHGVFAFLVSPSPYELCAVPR
The target of data set [12] is T1, Human immunodeficiency virus type 1 protease. Description: Inhibitory activity against HIV-1 protease (K-60C strain).
For data set [13] the target is unchanged. Description: Inhibitory activity against HIV-1 protease (V-18C strain).
Data set [14] in a line: Cmax value determined in dog at a dose of 5 mg/kg by oral administration. It counts as ADME, organism-based, Canis lupus familiaris. Also noted: dose 5 mg/kg, route oral. The following applies: in vivo.
Data set [15] concerns the target T1, Human immunodeficiency virus type 1 protease. The experiment in a line: Inhibitory activity against HIV-1 protease (Q-60C strain).
The subject of data set [16] is Canis familiaris. Description: Cmax value determined in dog at a dose of 10 mg/kg by oral administration along with indinavir (10 mg/kg). The following applies: in vivo.
Data set [17] is described as follows: Cmax value determined in dog at a dose of […] by oral administration along with […] (10 mg/kg). The following applies: in vivo. Also noted: route oral. It counts as ADME, organism-based, Canis lupus familiaris.

Chain of Cytochrome P450 3A4 (P08684 whole entry): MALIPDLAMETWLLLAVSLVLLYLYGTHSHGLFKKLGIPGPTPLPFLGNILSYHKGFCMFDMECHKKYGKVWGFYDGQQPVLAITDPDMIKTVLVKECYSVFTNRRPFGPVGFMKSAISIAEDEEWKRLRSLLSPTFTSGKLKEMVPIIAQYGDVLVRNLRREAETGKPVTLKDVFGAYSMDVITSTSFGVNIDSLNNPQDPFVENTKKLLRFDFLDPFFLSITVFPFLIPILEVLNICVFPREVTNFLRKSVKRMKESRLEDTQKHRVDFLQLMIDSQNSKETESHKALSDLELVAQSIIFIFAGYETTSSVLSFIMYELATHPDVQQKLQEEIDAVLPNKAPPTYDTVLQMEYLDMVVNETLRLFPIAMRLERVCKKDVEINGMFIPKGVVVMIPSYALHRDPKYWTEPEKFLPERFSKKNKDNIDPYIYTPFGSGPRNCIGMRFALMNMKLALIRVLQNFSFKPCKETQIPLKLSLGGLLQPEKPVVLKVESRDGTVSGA

In data set [1], `O=C(N[C@H]1c2ccccc2OC[C@H]1O)[C@H](Cc1cccnc1)C[C@H](O)CN1CCN(Cc2ccn(-c3ccc(Cl)cc3)c2)C[C@H]1C(=O)NCC(F)(F)F` registered a CLint scaled of 229 mL/min/kg. In addition, the IC50 came to 50 nM in [2] and 0.03 nM in data set [7]. Further, the IC95 in [3] was 0.015 µM; in data set [4] it was at most 0.008 µM; in [5], at most 0.008 µM; in data set [6] it was at most 0.008 µM.
`O=C(N[C@H]1c2ccccc2OC[C@H]1O)[C@H](Cc1cccnc1)C[C@H](O)CN1CCN(Cc2ccn(-c3ccc(F)cc3)c2)C[C@H]1C(=O)NCC(F)(F)F`: the IC95 in [3], in data set [4] and in data set [5] was 0.015 µM in each case. The molecule further gave an IC50 in data set [7] of 0.05 nM.
Take `O=C(N[C@H]1c2ccccc2OC[C@H]1O)[C@H](Cc1cccnc1)C[C@H](O)CN1CCN(Cc2ccn(-c3cc(Cl)c(Cl)c(Cl)c3)c2)C[C@H]1C(=O)NCC(F)(F)F`: the IC95 in data set [3] was 0.031 µM; in [4] it was at most 0.008 µM; in data set [5], at most 0.008 µM; in data set [6] it was 0.015 µM. This molecule came in with an IC50 in data set [7] of 0.02 nM.
Regarding `O=C(N[C@H]1c2ccccc2OC[C@H]1O)[C@H](Cc1cccnc1)C[C@H](O)CN1CCN(Cc2ccn(-c3cccc(C(F)(F)F)c3)c2)C[C@H]1C(=O)NCC(F)(F)F`, the IC95 in data set [3] is 0.031 µM; in [4], 0.015 µM; in [5], at most 0.008 µM. Besides, 0.05 nM corresponded to half-maximal inhibition in [7] (IC50).
Take `O=C(N[C@H]1c2ccccc2OC[C@H]1O)[C@H](Cc1cccnc1)C[C@H](O)CN1CCN(Cc2ccn(-c3ccccc3F)c2)C[C@H]1C(=O)NCC(F)(F)F`: the values for the IC95 in data set [3], in [4] and in [5] were 0.062 µM, 0.015 µM and 0.031 µM, respectively. Moreover, in [7], the IC50 came to 0.16 nM.
As for `O=C(N[C@H]1c2ccccc2OC[C@H]1O)[C@H](Cc1cccnc1)C[C@H](O)CN1CCN(Cc2ccn(-c3cccc(Cl)c3)c2)C[C@H]1C(=O)NCC(F)(F)F`, the CLint scaled in data set [1] stood at 307 mL/min/kg. The values for the IC50 in [2] and in data set [7] were 80 nM and 0.05 nM, respectively. For the same molecule, the IC95 in data set [3], in data set [4], in [5] and in data set [6] was at most 0.008 µM each time.
Consider `N#Cc1cccc(-n2ccc(CN3CCN(C[C@@H](O)C[C@@H](Cc4cccnc4)C(=O)N[C@H]4c5ccccc5OC[C@H]4O)[C@H](C(=O)NCC(F)(F)F)C3)c2)c1`, for which the IC95 was 0.062 µM in [3], 0.062 µM in [4] and at most 0.031 µM in data set [5]. For the same molecule, the midpoint of inhibition in data set [7], the IC50, lay at 0.15 nM.
The molecule `O=C(N[C@H]1c2ccccc2OC[C@H]1O)[C@H](Cc1cccnc1)C[C@H](O)CN1CCN(Cc2ccn(-c3ccc(F)c(F)c3F)c2)C[C@H]1C(=O)NCC(F)(F)F` displayed a CLint scaled in [1] of 218 mL/min/kg. This molecule displayed a Cmax in data set [8] of 1.9 µM. The AUC amounted to 4.4 µM·h in data set [9] and 26.6 µM·h in data set [10]. The values for the IC50 in [2] and in [7] were 50 nM and 0.05 nM, respectively. The IC95 in [3] is 0.015 µM; in data set [4], at most 0.008 µM; in data set [5], at most 0.008 µM; in data set [6] it was at most 0.008 µM.
As for `N#Cc1ccc(-n2ccc(CN3CCN(C[C@@H](O)C[C@@H](Cc4cccnc4)C(=O)N[C@H]4c5ccccc5OC[C@H]4O)[C@H](C(=O)NCC(F)(F)F)C3)c2)cc1`, the figures for the IC95 in data set [3], in data set [4] and in data set [5] were 0.125 µM, 0.062 µM and 0.031 µM, respectively. In addition, the IC50 in data set [7] was determined as 0.1 nM.
For `O=C(N[C@H]1c2ccccc2OC[C@H]1O)[C@H](Cc1cccnc1)C[C@H](O)CN1CCN(Cc2ccn(-c3ccc(C(F)(F)F)cc3)c2)C[C@H]1C(=O)NCC(F)(F)F`, the IC95 was 0.015 µM in data set [3], 0.015 µM in data set [4] and at most 0.008 µM in data set [5]. The IC50 in [7] was found to be 0.04 nM.
For the molecule `Cc1ccccc1-n1ccc(CN2CCN(C[C@@H](O)C[C@@H](Cc3cccnc3)C(=O)N[C@H]3c4ccccc4OC[C@H]3O)[C@H](C(=O)NCC(F)(F)F)C2)c1`, the IC95 in [3] was 0.125 µM; in [4], at most 0.008 µM; in data set [5], 0.031 µM; in [6], 0.031 µM. In [7], this molecule registered an IC50 of 0.16 nM.
With `O=C(N[C@H]1c2ccccc2OC[C@H]1O)[C@H](Cc1cccnc1)C[C@H](O)CN1CCN(Cc2ccn(-c3ccccc3Cl)c2)C[C@H]1C(=O)NCC(F)(F)F`, the IC95 in data set [3] is 0.062 µM; in data set [4], at most 0.008 µM; in data set [5], 0.031 µM; in [6] it was 0.031 µM. Also, the IC50 in data set [7] was found to be 0.18 nM.
Turning to `O=C(N[C@H]1c2ccccc2OC[C@H]1O)[C@H](Cc1cccnc1)C[C@H](O)CN1CCN(Cc2ccn(-c3ccc(Cl)c(Cl)c3)c2)C[C@H]1C(=O)NCC(F)(F)F`, the IC95 is 0.031 µM in data set [3], 0.015 µM in data set [4], at most 0.008 µM in data set [5] and 0.015 µM in data set [6]. 0.02 nM corresponded to half-maximal inhibition in [7] (IC50).
For the molecule `O=C(N[C@H]1c2ccccc2OC[C@H]1O)[C@H](Cc1cccnc1)C[C@H](O)CN1CCN(Cc2ccn(-c3cccc(F)c3)c2)C[C@H]1C(=O)NCC(F)(F)F`, the IC95 was 0.031 µM in [3], 0.015 µM in data set [4] and 0.015 µM in [5]. In addition, inhibition in [7] was half-maximal at 0.05 nM (IC50).
With `Cc1ccc(-n2ccc(CN3CCN(C[C@@H](O)C[C@@H](Cc4cccnc4)C(=O)N[C@H]4c5ccccc5OC[C@H]4O)[C@H](C(=O)NCC(F)(F)F)C3)c2)cc1`, the IC95 in [3] is 0.015 µM; in data set [4], 0.015 µM; in [5], at most 0.008 µM; in [6], 0.015 µM. Also, the midpoint of inhibition in data set [7], the IC50, lay at 0.06 nM.
Regarding `O=C(N[C@H]1c2ccccc2OC[C@H]1O)[C@H](Cc1cccnc1)C[C@H](O)CN1CCN(Cc2ccn(-c3ccccc3)c2)C[C@H]1C(=O)NCC(F)(F)F`, the CLint scaled in data set [1] is 332 mL/min/kg. In data set [8], this molecule returned a Cmax of 5.3 µM. The same molecule yielded an AUC in [9] of 7 µM·h. Besides, the IC50 amounted to 400 nM in [2]; 12 µM in data set [11]; 2.7 nM in [12]; 0.11 nM in [7]; 2.49 nM in data set [13]. Besides, the IC95 in data set [3] is 0.031 µM; in data set [4] it was 0.015 µM; in data set [5], at most 0.008 µM; in data set [6], at most 0.008 µM.
As to `Cc1cccc(-n2ccc(CN3CCN(C[C@@H](O)C[C@@H](Cc4cccnc4)C(=O)N[C@H]4c5ccccc5OC[C@H]4O)[C@H](C(=O)NCC(F)(F)F)C3)c2)c1`, the IC95 in data set [3] is 0.062 µM; in [4] it was at most 0.008 µM; in data set [5], at most 0.008 µM; in [6] it was at most 0.008 µM. In [7], this molecule had an IC50 of 0.1 nM.
Take `N#Cc1ccccc1-n1ccc(CN2CCN(C[C@@H](O)C[C@@H](Cc3cccnc3)C(=O)N[C@H]3c4ccccc4OC[C@H]3O)[C@H](C(=O)NCC(F)(F)F)C2)c1`: the IC95 came out at 0.25 µM in data set [3], 0.046 µM in data set [4] and 0.062 µM in data set [5]. The IC50 in [7] was determined as 0.46 nM.
For `O=C(N[C@H]1c2ccccc2OC[C@H]1O)[C@H](Cc1cccnc1)C[C@H](O)CN1CCN(Cc2ccn(-c3ccccc3C(F)(F)F)c2)C[C@H]1C(=O)NCC(F)(F)F` the same measures were 0.5 µM, 0.038 µM, 0.5 µM and 1.32 nM.
As to `O=C(N[C@H]1c2ccccc2OC[C@H]1O)[C@H](Cc1cccnc1)C[C@H](O)CN1CCN(Cc2ccc(-c3ccccc3)o2)C[C@H]1C(=O)NCC(F)(F)F`, the CLint scaled in [1] came out at 238 mL/min/kg. Further, the Cmax in data set [14] amounted to 100 nM; in data set [16], 6.1 µM. Also, the IC95 in [3], in data set [4], in data set [5] and in data set [6] was at most 0.008 µM each time. Besides, the IC50 in data set [12] worked out at 0.06 nM; in [15] it was 0.07 nM; in data set [13], 0.15 nM.
As to `CC(C)(C)NC(=O)[C@@H]1CN(Cc2cccnc2)CCN1C[C@@H](O)C[C@@H](Cc1ccccc1)C(=O)N[C@H]1c2ccccc2C[C@H]1O.O`, in data set [17], the peak level (Cmax) was 11.4 µM. In addition, the IC95 in data set [3] is above 1 µM; in data set [4] it was 0.05 µM; in data set [5] it was above 1 µM; in [6] it was above 1 µM. In data set [10], this molecule came in with an AUC of 12.5 µM·h.

(Values after ChEMBL document CHEMBL1146635 (Bioorg Med Chem Lett, 2003).)
